In PubChem BioAssay AID1259407 (Chemical Carcinogenesis Research Information System (CCRIS), 2018):
The source made the active and inactive calls. No rule for the calls is given here.

Tested on: CCRIS mutagenicity, Ames/micronucleus/aberration tests
Experiment: CCRIS mutagenicity studies
[1] = Test System: AMES SALMONELLA TYPHIMURIUM, Strain/Indicator: TA98, Metabolic Activation: NONE, Method: STANDARD PLATE
[2] = Test System: AMES SALMONELLA TYPHIMURIUM, Strain/Indicator: TA100, Metabolic Activation: NONE, Method: STANDARD PLATE

## COP(=S)(OC)Oc1ccc(Sc2ccc(OP(=S)(OC)OC)cc2)cc1
Test System: AMES SALMONELLA TYPHIMURIUM, Strain/Indicator: TA97, Metabolic Activation: NONE, Method: STANDARD PLATE
  mutagenic call: inactive; negative
Test System: AMES SALMONELLA TYPHIMURIUM, Strain/Indicator: TA97, Metabolic Activation: S-9, Method: STANDARD PLATE
  mutagenic call: inactive; negative
[1]
  mutagenic call: inactive; negative
Test System: AMES SALMONELLA TYPHIMURIUM, Strain/Indicator: TA98, Metabolic Activation: S-9, Method: STANDARD PLATE
  mutagenic call: inactive; negative
Test System: AMES SALMONELLA TYPHIMURIUM, Strain/Indicator: TA98NR, Metabolic Activation: NONE, Method: STANDARD PLATE
  mutagenic call: active; positive
Test System: AMES SALMONELLA TYPHIMURIUM, Strain/Indicator: TA98NR, Metabolic Activation: S-9, Method: STANDARD PLATE
  mutagenic call: active; positive
[2]
  mutagenic call: inactive; negative
Test System: AMES SALMONELLA TYPHIMURIUM, Strain/Indicator: TA100, Metabolic Activation: S-9, Method: STANDARD PLATE
  mutagenic call: inactive; negative
Test System: AMES SALMONELLA TYPHIMURIUM, Strain/Indicator: TA102, Metabolic Activation: NONE, Method: STANDARD PLATE
  mutagenic call: inactive; negative
Test System: AMES SALMONELLA TYPHIMURIUM, Strain/Indicator: TA102, Metabolic Activation: S-9, Method: STANDARD PLATE
  mutagenic call: inactive; negative
Test System: AMES SALMONELLA TYPHIMURIUM, Strain/Indicator: TA1535, Metabolic Activation: NONE, Method: STANDARD PLATE
  mutagenic call: active; positive
Test System: AMES SALMONELLA TYPHIMURIUM, Strain/Indicator: TA1535, Metabolic Activation: S-9, Method: STANDARD PLATE
  mutagenic call: active; positive
Test System: AMES SALMONELLA TYPHIMURIUM, Strain/Indicator: YG7104, Metabolic Activation: NONE, Method: STANDARD PLATE
  mutagenic call: active; positive
Test System: AMES SALMONELLA TYPHIMURIUM, Strain/Indicator: YG7104, Metabolic Activation: S-9, Method: STANDARD PLATE
  mutagenic call: active; positive
Test System: AMES SALMONELLA TYPHIMURIUM, Strain/Indicator: YG7108, Metabolic Activation: NONE, Method: STANDARD PLATE
  mutagenic call: inactive; negative
Test System: AMES SALMONELLA TYPHIMURIUM, Strain/Indicator: YG7108, Metabolic Activation: S-9, Method: STANDARD PLATE
  mutagenic call: active; positive

## C1=CC2CCCCC2c2ccccc21 (stereo unspecified)
Test System: AMES SALMONELLA TYPHIMURIUM, Strain/Indicator: TA98, Metabolic Activation: RAT, LIVER, S-9, SODIUM PHENOBARBITAL AND BETA-NAPHTHOFLAVONE, Method: STANDARD PLATE
  mutagenic call: active; positive
Test System: AMES SALMONELLA TYPHIMURIUM, Strain/Indicator: TA100, Metabolic Activation: RAT, LIVER, S-9, SODIUM PHEOBARBITAL AND BETA-NAPHTHOFLAVONE, Method: STANDARD PLATE
  mutagenic call: active; positive

## [CH3][Hg+]
Test System: AMES SALMONELLA TYPHIMURIUM, Strain/Indicator: TA97, Metabolic Activation: HAMSTER, LIVER, S-9, AROCLOR 1254 (10%), Method: PREINCUBATION
  mutagenic call: inactive; negative
Test System: AMES SALMONELLA TYPHIMURIUM, Strain/Indicator: TA97, Metabolic Activation: HAMSTER, LIVER, S-9, AROCLOR 1254 (30%), Method: PREINCUBATION
  mutagenic call: inactive; negative
Test System: AMES SALMONELLA TYPHIMURIUM, Strain/Indicator: TA97, Metabolic Activation: NONE, Method: PREINCUBATION
  mutagenic call: inactive; negative
Test System: AMES SALMONELLA TYPHIMURIUM, Strain/Indicator: TA97, Metabolic Activation: RAT, LIVER, S-9, AROCLOR 1254 (10%), Method: PREINCUBATION
  mutagenic call: inactive; negative
Test System: AMES SALMONELLA TYPHIMURIUM, Strain/Indicator: TA97, Metabolic Activation: RAT, LIVER, S-9, AROCLOR 1254 (30%), Method: PREINCUBATION
  mutagenic call: inactive; negative
Test System: AMES SALMONELLA TYPHIMURIUM, Strain/Indicator: TA98, Metabolic Activation: HAMSTER, LIVER, S-9, AROCLOR 1254 (10%), Method: PREINCUBATION
  mutagenic call: inactive; negative
Test System: AMES SALMONELLA TYPHIMURIUM, Strain/Indicator: TA98, Metabolic Activation: HAMSTER, LIVER, S-9, AROCLOR 1254 (30%), Method: PREINCUBATION
  mutagenic call: inactive; negative
Test System: AMES SALMONELLA TYPHIMURIUM, Strain/Indicator: TA98, Metabolic Activation: NONE, Method: PREINCUBATION
  mutagenic call: inactive; negative
Test System: AMES SALMONELLA TYPHIMURIUM, Strain/Indicator: TA98, Metabolic Activation: RAT, LIVER, S-9, AROCLOR 1254 (10%), Method: PREINCUBATION
  mutagenic call: inactive; negative
Test System: AMES SALMONELLA TYPHIMURIUM, Strain/Indicator: TA98, Metabolic Activation: RAT, LIVER, S-9, AROCLOR 1254 (30%), Method: PREINCUBATION
  mutagenic call: inactive; negative
Test System: AMES SALMONELLA TYPHIMURIUM, Strain/Indicator: TA100, Metabolic Activation: HAMSTER, LIVER, S-9, AROCLOR 1254 (10%), Method: PREINCUBATION
  mutagenic call: inactive; negative
Test System: AMES SALMONELLA TYPHIMURIUM, Strain/Indicator: TA100, Metabolic Activation: HAMSTER, LIVER, S-9, AROCLOR 1254 (30%), Method: PREINCUBATION
  mutagenic call: inactive; negative
Test System: AMES SALMONELLA TYPHIMURIUM, Strain/Indicator: TA100, Metabolic Activation: NONE, Method: PREINCUBATION
  mutagenic call: inactive; negative
Test System: AMES SALMONELLA TYPHIMURIUM, Strain/Indicator: TA100, Metabolic Activation: RAT, LIVER, S-9, AROCLOR 1254 (10%), Method: PREINCUBATION
  mutagenic call: inactive; negative
Test System: AMES SALMONELLA TYPHIMURIUM, Strain/Indicator: TA100, Metabolic Activation: RAT, LIVER, S-9, AROCLOR 1254 (30%), Method: PREINCUBATION
  mutagenic call: inactive; negative
Test System: AMES SALMONELLA TYPHIMURIUM, Strain/Indicator: TA1535, Metabolic Activation: HAMSTER, LIVER, S-9, AROCLOR 1254 (10%), Method: PREINCUBATION
  mutagenic call: inactive; negative
Test System: AMES SALMONELLA TYPHIMURIUM, Strain/Indicator: TA1535, Metabolic Activation: HAMSTER, LIVER, S-9, AROCLOR 1254 (30%), Method: PREINCUBATION
  mutagenic call: inactive; negative
Test System: AMES SALMONELLA TYPHIMURIUM, Strain/Indicator: TA1535, Metabolic Activation: NONE, Method: PREINCUBATION
  mutagenic call: inactive; negative
Test System: AMES SALMONELLA TYPHIMURIUM, Strain/Indicator: TA1535, Metabolic Activation: RAT, LIVER, S-9, AROCLOR 1254 (10%), Method: PREINCUBATION
  mutagenic call: inactive; negative
Test System: AMES SALMONELLA TYPHIMURIUM, Strain/Indicator: TA1535, Metabolic Activation: RAT, LIVER, S-9, AROCLOR 1254 (30%), Method: PREINCUBATION
  mutagenic call: inactive; negative
Test System: AMES SALMONELLA TYPHIMURIUM, Strain/Indicator: TA1537, Metabolic Activation: HAMSTER, LIVER, S-9, AROCLOR 1254 (30%), Method: PREINCUBATION
  mutagenic call: inactive; negative
Test System: AMES SALMONELLA TYPHIMURIUM, Strain/Indicator: TA1537, Metabolic Activation: NONE, Method: PREINCUBATION
  mutagenic call: inactive; negative
Test System: AMES SALMONELLA TYPHIMURIUM, Strain/Indicator: TA1537, Metabolic Activation: RAT, LIVER, S-9, AROCLOR 1254 (30%), Method: PREINCUBATION
  mutagenic call: inactive; negative

## CCCCNC(=O)c1cc(N)ccc1Oc1ccc(C)cc1
Test System: Ames Salmonella typhimurium, Strain/Indicator: TA98, Metabolic Activation: None, Method: Preincubation
  mutagenic call: inactive; negative. data for pa31 mentioned in abstract only.
Test System: Ames Salmonella typhimurium, Strain/Indicator: TA98, Metabolic Activation: Rat, Liver, S-9, Phenobarbital and beta-naphthoflavone, Method: Preincubation
  mutagenic call: active; positive
Test System: Ames Salmonella typhimurium, Strain/Indicator: TA100, Metabolic Activation: None, Method: Preincubation
  mutagenic call: inactive; negative. data for pa31 mentioned in abstract only.
Test System: Ames Salmonella typhimurium, Strain/Indicator: TA100, Metabolic Activation: Rat, Liver, S-9, Phenobarbital and beta-naphthoflavone, Method: Preincubation
  mutagenic call: active; positive
Test System: Ames Salmonella typhimurium, Strain/Indicator: TA102, Metabolic Activation: None, Method: Preincubation
  mutagenic call: inactive; negative. data for pa31 mentioned in abstract only.
Test System: Ames Salmonella typhimurium, Strain/Indicator: TA1535, Metabolic Activation: None, Method: Preincubation
  mutagenic call: inactive; negative. data for pa31 mentioned in abstract only.
Test System: Ames Salmonella typhimurium, Strain/Indicator: TA1537, Metabolic Activation: None, Method: Preincubation
  mutagenic call: inactive; negative. data for pa31 mentioned in abstract only.

## O=[N+]([O-])c1ccc2ccc3cc4c(c5ccc1c2c35)CCC=C4
Test System: AMES SALMONELLA TYPHIMURIUM, Strain/Indicator: TA98 (1,8-DNP6), Metabolic Activation: RAT, LIVER, S-9, AROCLOR 1254, Method: STANDARD PLATE
  mutagenic call: active; positive
Test System: AMES SALMONELLA TYPHIMURIUM, Strain/Indicator: TA98(NR), Metabolic Activation: RAT, LIVER, S-9, AROCLOR 1254, Method: STANDARD PLATE
  mutagenic call: active; positive
[1]
  mutagenic call: active; positive
Test System: AMES SALMONELLA TYPHIMURIUM, Strain/Indicator: TA98, Metabolic Activation: RAT, LIVER, S-9, AROCLOR 1254, Method: STANDARD PLATE
  mutagenic call: active; positive
[2]
  mutagenic call: active; positive
Test System: AMES SALMONELLA TYPHIMURIUM, Strain/Indicator: TA100, Metabolic Activation: RAT, LIVER, S-9, AROCLOR 1254, Method: STANDARD PLATE
  mutagenic call: active; positive

## O=CC(Cl)=C(Cl)Cl
[1]
  mutagenic call: active; positive
[2]
  mutagenic call: active; positive
